From patent US5276023A, “19-nor-steroid esters” (Roussel Uclaf, priority 1989, dated 1994)

What was measured:
Androgen receptor = biological target: T1, Androgen receptor (Rattus norvegicus, UniProt P15207); assay: relative bond affinity for the androgen receptor of rat's prostate; type: binding; details: tritiated testosterone, RBA=100 (CH)/(CX), reference cold testosterone; for relative bond affinity (RBA), Androgen 0,5H: half an hour incubation at 0° C.; for relative bond affinity (RBA), Androgen: incubation at 0° C.
T1 construct: The prostates were removed, weighed and homogenized; from tissue; host or cells: prostate cytosol (105,000 g supernatant) of castrated male rats
T1 sequence (P15207 1-902): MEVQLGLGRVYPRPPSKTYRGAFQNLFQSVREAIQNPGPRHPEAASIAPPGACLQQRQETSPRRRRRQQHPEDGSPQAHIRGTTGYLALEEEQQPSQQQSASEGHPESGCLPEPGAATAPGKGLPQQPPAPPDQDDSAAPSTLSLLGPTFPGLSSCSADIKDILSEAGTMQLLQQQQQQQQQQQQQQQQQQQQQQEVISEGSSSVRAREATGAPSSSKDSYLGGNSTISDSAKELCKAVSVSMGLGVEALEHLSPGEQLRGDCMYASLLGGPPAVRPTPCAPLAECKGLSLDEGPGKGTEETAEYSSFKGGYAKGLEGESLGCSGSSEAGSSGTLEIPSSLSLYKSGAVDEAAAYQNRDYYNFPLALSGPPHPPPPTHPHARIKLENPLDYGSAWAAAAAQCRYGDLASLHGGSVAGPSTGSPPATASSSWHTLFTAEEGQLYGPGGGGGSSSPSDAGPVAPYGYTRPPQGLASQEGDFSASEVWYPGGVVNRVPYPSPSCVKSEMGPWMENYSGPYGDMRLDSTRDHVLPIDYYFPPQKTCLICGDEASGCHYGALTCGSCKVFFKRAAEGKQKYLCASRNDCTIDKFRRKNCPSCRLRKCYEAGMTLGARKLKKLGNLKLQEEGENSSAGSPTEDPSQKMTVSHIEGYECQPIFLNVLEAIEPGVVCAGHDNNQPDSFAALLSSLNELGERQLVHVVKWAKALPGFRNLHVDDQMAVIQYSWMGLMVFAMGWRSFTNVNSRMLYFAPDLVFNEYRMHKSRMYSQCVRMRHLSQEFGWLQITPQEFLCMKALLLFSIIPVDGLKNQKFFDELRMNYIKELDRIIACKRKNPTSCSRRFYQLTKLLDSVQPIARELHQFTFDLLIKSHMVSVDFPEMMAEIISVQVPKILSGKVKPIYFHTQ
Experimental: 1) Measurement of the relative bond affinity for the receptors of steroid hormones:
Androgen receptor of rat's prostate
Male rats weighing 160 to 200 g were castrated and 24 hours after the castration, the animals were killed. The prostates were removed, weighed and homogenized at 0° C. using a Potter teflon-flask in a (TSDPM) 10 mM Tris, 0.25M saccharose, […] phenylmethanesulfonylfluoride, 20 mM molybdate, 2 mM dithiothreitol, HCl pH 7.4 buffer (1 g of tissue per 5 ml of TSDPM). The homogenate was ultracentrifuged (105,000 g×60 mn) at 0° C. and aliquots of the supernatant "cytosol", were incubated at 0° C. with a constant concentration in the presence of increasing concentrations (0-1000 nM) of cold testosterone or of the product under test. […]
Calculation of the relative bond affinity:
The calculation of the relative bond affinity (RBA) was identical for all receptors. The following two curves were drawn: the percentage of bonded tritiated hormone B/T as a function of the logarithm of the concentration of the cold reference hormone and B/T as a function of the logarithm of the concentration of the cold product under test. The straight line of the equation:
B max=Percentage of bonded tritiated hormone for an incubation of this tritiated hormone at the concentration (T).
B min=Percentage of bonded tritiated hormone for an incubation of this tritiated hormone at the concentration (T) in the presence of a great excess of cold hormone (2500×10^-9 M).
The intersections of the straight line I50 and the curves allowed the evaluation of the concentrations of the cold reference hormone (CH) and of the cold product under test (CX) which inhibited by 50% the bonding of the tritiated hormone on the receptor. The relative bond affinity (RBA) of the product under test was determined by the equation RBA=100 (CH)/(CX)

rat thymocytes = assay: anti-glucocorticoid activity vis-a-vis dexamethasone: incorporation of uridine in rat thymocytes; type: cell-based; details: for inhibition at 1 µM / inhibition at 0.1 µM / inhibition at 0.01 µM: Rattus norvegicus, Thymocyte, 3 h; for inhibition at 1 µM / inhibition at 0.1 µM / inhibition at 0.01 µM / % of inhibition of the incorporation of uridine: with 5×10^-8 M dexamethasone, 3 hours at 37° C.; for antiglucocorticoid activity: conclusion in words from the thymocyte study
Excerpt: 2) Anti-glucocorticoid activity vis-a-vis dexamethasone
Incorporation of uridine in rat thymocytes
Glucocorticoids cause an inhibition of the incorporation of nucleosides in lymphoid tissue and the measurement of the incorporation of radio-active uridine in the thymocytes in the presence of a product under test allow its glucocorticoid activity to be evaluated.
It was in accordance with the technique described by Dausse et al (3). The thymus of a suprarenalectomized rat weighing 160 to 180 g was removed, shredded and homogenized slowly using a teflon-flask homogenizer in Hanks solution. The cellular suspension obtained was filtered on gauze and then centrifuged at 800 g×10 mn. A new centrifugation was then carried out at 800 g×10 mn. The deposit was suspended in a nutritive medium (M.E.M. Gibco) and the cellular concentration was adjusted to approximately 20×10^6 cells per ml. Aliquots of 250 ul were then incubated under carbogen for 3 hours at 37° C. with 5×10^-8 M of dexamethasone in the presence or not of increasing concentrations of product (10^-8 M to 10^-6 M). 0.1 uCi of tritiated uridine was then added to each incubate and the incubation was continued for one hour. The incubates were then cooled and 1 ml of a cold solution of trichloracetic acid (TCA) at 5 % weight/volume was added. The precipitates were collected on Whatman GF/C filters and were washed with 4×2 ml of 5% iced TCA. The radioactivity retained on the filters (representing the tritiated uridine incorporated in the thymocytes) was measured using a liquid scintillation spectrometer.

relative bond affinity (RBA), Androgen 0,5H (Androgen receptor) | relative bond affinity (RBA), Androgen (Androgen receptor) | relative bond affinity (RBA), Androgen 0,5H (Androgen receptor; listed as EX. 5) | relative bond affinity (RBA), Androgen (Androgen receptor; listed as EX. 5) | relative bond affinity (RBA), Androgen 0,5H (Androgen receptor; listed as EX. 6) | relative bond affinity (RBA), Androgen (Androgen receptor; listed as EX. 6) | SMILES | inhibition at 1 µM (rat thymocytes; product at 10^-6 M) | inhibition at 0.1 µM (rat thymocytes; product at 10^-7 M) | inhibition at 0.01 µM (rat thymocytes; product at 10^-8 M) | antiglucocorticoid activity (rat thymocytes) | % of inhibition of the incorporation of uridine (rat thymocytes; product at 10^-6 M) | % of inhibition of the incorporation of uridine (rat thymocytes; product at 10^-7 M) | % of inhibition of the incorporation of uridine (rat thymocytes; product at 10^-8 M)
 |  | 0,6 | 1 |  |  | CC#C[C@]1(OC(=O)CCC(=O)O)CC[C@H]2[C@@H]3CCC4=CC(=O)CCC4=C3[C@@H](c3ccc(N(C)C)cc3)C[C@@]21C [Example 5, 11β-[4-dimethylamino-phenyl]-17-(1-propynyl)-Δ^4,9-estradien-3-one-17β-yl acid succinate] |  |  |  | good | 135% | 100% | 28%
 |  |  |  | 2,2 | 4,1 | CC#C[C@]1(OC(=O)CCC(=O)O)CC[C@H]2[C@@H]3CCC4=CC(=O)CCC4=C3[C@@H](c3ccc(N(C)C)cc3)C[C@@]21C [Example 6, Sodium 11β-[4-dimethylamino-phenyl]17α-(1-propynyl)-Δ^4,9 - estradien-3-one-17β-yl succinate] |  |  |  |  | 78% | 27% | 0%
1,9 | 8,6 |  |  |  |  | CN(C)c1ccc([C@H]2C[C@@]3(C)[C@@H](CC[C@]3(C#CCl)OC(=O)CCC(=O)O)[C@@H]3CCC4=CC(=O)CCC4=C32)cc1 [Example 10, Sodium and 21-chloro-11β-[4-dimethylamino-phenyl]-19-nor-17α-Δ^4,9-pregnadien-3-one-20-yn-17β-yl succinate] | 78% | 19% | 0% |  |  |  | 
0,8 | 0,3 |  |  |  |  | CC#C[C@]1(OC(=O)CCC(=O)O)CC[C@H]2[C@@H]3CCC4=CC(=O)CCC4=C3[C@@H](c3ccc(SC)cc3)C[C@@]21C [Example 12, Sodium and 11β-[4-methylthio-phenyl]-17α-(1-propynyl)-Δ^4,9 estradien-3-one-17β-yl succinate] | 104% | 62% | 8% | good |  |  | 

More lines, now with the values behind:

SMILES | relative bond affinity (RBA), Androgen 0,5H (Androgen receptor) | relative bond affinity (RBA), Androgen (Androgen receptor) | relative bond affinity (RBA), Androgen 0,5H (Androgen receptor; listed as EX. 5) | relative bond affinity (RBA), Androgen (Androgen receptor; listed as EX. 5) | relative bond affinity (RBA), Androgen 0,5H (Androgen receptor; listed as EX. 6) | relative bond affinity (RBA), Androgen (Androgen receptor; listed as EX. 6) | inhibition at 1 µM (rat thymocytes; product at 10^-6 M) | inhibition at 0.1 µM (rat thymocytes; product at 10^-7 M) | inhibition at 0.01 µM (rat thymocytes; product at 10^-8 M) | antiglucocorticoid activity (rat thymocytes) | % of inhibition of the incorporation of uridine (rat thymocytes; product at 10^-6 M) | % of inhibition of the incorporation of uridine (rat thymocytes; product at 10^-7 M) | % of inhibition of the incorporation of uridine (rat thymocytes; product at 10^-8 M)
CN(C)c1ccc([C@H]2C[C@@]3(C)[C@@H](CC[C@@]3(O)/C=C\COC(=O)CCC(=O)O)[C@@H]3CCC4=CC(=O)CCC4=C32)cc1 [Example 2, Sodium (Z)-3-[11β-[4-dimethylamino-phenyl]-Δ^4,9-estradien-17β-ol-3-one-17α-yl]-2-propenyl succinate] | 12 | 39 |  |  |  |  | 68% | 1% | 0% |  |  |  | 
CN(C)c1ccc([C@H]2C[C@@]3(C)[C@@H](CC[C@@]3(O)C#CCOC(=O)CCC(=O)O)[C@@H]3CCC4=CC(=O)CCC4=C32)cc1 [Example 4, Sodium and 3-[11β-[4-dimethylamino-phenyl]-Δ^4,9-estradien-17β-ol-3-one-17α-yl]-2-propynyl succinate] | 5,1 | 2,8 |  |  |  |  | 22% | 2.5% | 0% |  |  |  | 
